The record followed here is patent US20250195464A1, “ALOTAKETAL COMPOUNDS AND DERIVATIVES THEREOF FOR USE AS ANTIVIRAL AGENTS” (priority 2022, published 2025).

For orientation: EC50 means the concentration that produces a half-maximal response.

The test system of this test is SARS-CoV-2 Omicron. In words: microbe, parasite or virus in culture. As to conditions: Severe acute respiratory syndrome coronavirus 2, Calu-3. Type of test: cell-based.

Read-outs that look alike come from different tables or passages of the source.

For `CC(=O)O[C@]1(C)C[C@@H](/C=C(\C)CCC=C(C)C)O[C@@]2(C=C(CO)[C@H]3CC(=O)C(C)=C[C@H]3O2)C1` [Alotaketal C], the 50% effective concentration (EC50) (read-out: Nucleocapsid EC50, Omicron) worked out at 140 nM and the EC50 (read-out: dsRNA EC50, Omicron) turned out to be 1540 nM.
